In patent US7517517B2 (Janssen Pharmaceutica N.V., priority 2002, dated 2009):

Legend:
[1] = molecular target: T1, mGlu1 receptor (Rattus norvegicus, UniProt P23385); experiment: [3H]Compound A binding and autoradiography on rat brain sections; details: 10 μM (FIG. 10, panel C)
Method: Tissue preparation. Male Wistar rats (200 g) were sacrificed by decapitation. Brains were immediately removed from the skull and were rapidly frozen in dry-ice-cooled 2-methylbutane (−40° C.). Brains were then stored at −70° C. until sectioning. Twenty-micrometer-thick sagittal sections were cut using a Leica C3050 cryostat microtome (Leica Microsystems, Wetzlar, Germany) and thaw-mounted on SuperFrost Plus microscope slides (Menzle-glaser, Germany). The sections were then kept at −70° C. until use.
Receptor autoradiography. Sections were thawed and dried under a stream of cold air, preincubated (3×5 min) in 50 mM Tris-HCl, 1.2 mM MgCl2, 2 mM CaCl2, 0.1% BSA pH 7.4 at room temperature. […] After the incubation, the excess of radioligand was washed off (3×5 min) in ice-cold buffer containing 50 mM Tris-HCl, 1.2 mM MgCl2 and 2 mM CaCl2, followed by a rapid dip in cold distilled water. The sections were dried under a stream of cold air and then exposed to [^3H]Hyperfilm (Amersham, UK) for 6 weeks at room temperature. The films were developed manually in Kodak D19 and fixed with Kodak Readymatic. Some sections were exposed to a Fuji Imaging Plate for 2 days at room temperature and scanned using a Fujix Bass 2000 phosphoimager.

[2] = test system: mGlu1 receptor; details: literature; cited from earlier work
[3] = molecular target: T2, rat mGlu1a receptor (Rattus norvegicus, UniProt P23385); experiment: [3H]Compound A binding to rat mGlu1a receptor CHO-dhfr− membranes (saturation, kinetics, inhibition)
T2 construct: host or cells: CHO-dhfr- cells
T2 sequence (P23385 19-1199): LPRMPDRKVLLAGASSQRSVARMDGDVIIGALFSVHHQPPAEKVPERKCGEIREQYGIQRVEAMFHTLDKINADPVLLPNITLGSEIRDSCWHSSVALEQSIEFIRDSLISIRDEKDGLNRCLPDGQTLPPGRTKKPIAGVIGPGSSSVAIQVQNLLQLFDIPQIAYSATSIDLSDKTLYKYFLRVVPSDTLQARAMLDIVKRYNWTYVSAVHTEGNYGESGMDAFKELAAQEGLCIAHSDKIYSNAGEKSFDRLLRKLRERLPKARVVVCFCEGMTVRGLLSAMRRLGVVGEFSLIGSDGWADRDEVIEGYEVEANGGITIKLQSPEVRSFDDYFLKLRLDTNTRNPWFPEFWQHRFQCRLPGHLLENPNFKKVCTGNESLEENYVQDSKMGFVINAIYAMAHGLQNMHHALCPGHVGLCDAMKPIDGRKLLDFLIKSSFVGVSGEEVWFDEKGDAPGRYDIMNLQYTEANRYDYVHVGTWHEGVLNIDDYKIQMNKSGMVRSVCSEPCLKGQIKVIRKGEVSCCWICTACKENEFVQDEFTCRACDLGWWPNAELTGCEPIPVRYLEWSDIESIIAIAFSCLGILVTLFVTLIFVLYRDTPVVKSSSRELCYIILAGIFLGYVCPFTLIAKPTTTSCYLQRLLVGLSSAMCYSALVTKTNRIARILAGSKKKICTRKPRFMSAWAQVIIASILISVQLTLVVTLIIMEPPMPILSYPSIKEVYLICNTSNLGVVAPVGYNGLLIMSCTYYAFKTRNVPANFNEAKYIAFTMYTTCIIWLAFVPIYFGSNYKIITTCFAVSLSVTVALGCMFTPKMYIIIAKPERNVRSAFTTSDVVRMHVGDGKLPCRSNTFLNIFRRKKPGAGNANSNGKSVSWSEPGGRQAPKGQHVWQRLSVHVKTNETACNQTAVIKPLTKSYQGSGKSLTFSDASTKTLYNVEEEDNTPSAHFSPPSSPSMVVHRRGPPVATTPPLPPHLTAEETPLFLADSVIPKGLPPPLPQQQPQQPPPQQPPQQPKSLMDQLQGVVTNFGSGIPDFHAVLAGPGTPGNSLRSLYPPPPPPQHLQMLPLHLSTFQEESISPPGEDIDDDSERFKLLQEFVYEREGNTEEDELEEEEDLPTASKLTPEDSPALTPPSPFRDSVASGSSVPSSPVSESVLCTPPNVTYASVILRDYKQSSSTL

[4] = molecular target: T2, rat mGlu1a receptor; experiment: [3H]quisqualate binding to rat mGlu1a receptor CHO-dhfr− membranes (saturation, inhibition); details: rat mGlu1a receptor CHO-dhfr− membranes
[5] = molecular target: T2, rat mGlu1a receptor; experiment: Intracellular Ca2+ response in rat mGlu1a receptor expressing CHO-dhfr− cells (FLIPR); format: cell-based; details: CHO-dhfr− cells expressing rat mGlu1a; glutamate 30 μM; read-out: IC50, inhibition of the glutamate-induced increase in [Ca2+]i
[6] = molecular target: T1, mGlu1 receptor; experiment: [3H]Compound A binding to rat brain membranes (cortex, hippocampus, striatum, cerebellum); details: 10 μM; 2.5 nM [3H]Compound A (FIG. 9)
Method: Tissue preparation. Male Wistar rats (˜200 g) were sacrificed by decapitation. The brains were rapidly removed and cortex, hippocampus, striatum and cerebellum were immediately dissected. The fresh tissue was homogenized with an Ultra Turrax in 20 volumes of 50 mM Tris-HCl, pH 7.4 and tissue was centrifuged at 23,500 g for 10 min. After homogenisation using a DUAL homogeniser, membranes were washed twice by centrifugation at 23,500 g for 10 min. The final pellet was suspended in 10 volumes of 50 mM Tris-HCl, pH 7.4 and frozen at −80° C.
In vitro binding assay. After thawing, membranes from rat cortex, cerebellum, striatum and hippocampus were rehomogenized using a DUAL and suspended in ice-cold binding buffer containing 50 mM Tris-HCl, 1.2 mM MgCl2, 2 mM CaCl2, pH 7.4. The binding assay was carried out in a total volume of 0.5 ml containing 2.5 nM [^3H]Compound A and a membrane aliquot corresponding to 40 μg for cerebellar membranes, 60 μg for hippocampal membranes, 80 μg for striatal membranes or 150 μg for cortical membranes. […] After incubation for 30 min at 4° C., the labelled membranes were washed and harvested by rapid vacuum filtration over Whatman GF/C glass-fibre filters using a 40-well filtration manifold and radioactivity collected on the filters was counted as above.
Data analysis was performed using the GraphPad Prism program (GraphPad Prism Software, Inc., San Diego, Calif.). Saturation binding experiments were analysed using a non-linear regression analysis. Inhibition curves were fitted using non-linear regression analysis fitting the one-site competition equation: Y=Bottom+((Top−Bottom)/1+10^X-LogIC50). Ki values were calculated using the Cheng-Prusoff equation: Ki=IC50/[1+([C]/KD)] where C is the concentration of radioligand and KD is the dissociation constant of the radioligand (Cheng and Prusoff, Biochem. Pharmacol. 22, 3099-3108, 1973). The observed on (kob) and off (koff) rate were calculated from association-dissociation curves using the one-phase-exponential association and decay equations in the Prism program, respectively. kon was calculated by subtracting koff from kob and dividing by the radioligand concentration. The two-tailed Student's t-test was used for statistical evaluation of the binding data: * p<0.05, ** p<0.01 and *** p<0.001. The Dunnett's t-test following a 2-way analysis of variance (with as factors compound concentration and experiment) were used to analyse the data from the IP experiments.

In the case of C=C1C[C@@H]2COC(=O)[C@]2(Cc2ccc3ccccc3c2)C1 [BAY 36-7620, reference compound], the “inhibition of [3H]Compound A binding to rat brain sections” value [1] is listed as “completely inhibited”, the “potency of mGlu1 receptor block” value [2] is listed as 0.16 µM and the Ki ([3]; 2.5 nM [3H]Compound A, 30 min at 4° C., mean ± SD of 3–4 experiments) is listed as 11.2 ± 0.93 nM. The Hill coefficient ([3]; inhibition of [3H]Compound A-binding, mean ± SD of 3–4 experiments) was 0.95 ± 0.02, the “inhibition of [3H]Compound A binding (in words)” value ([3]; rat mGlu1a receptor CHO-dhfr− membranes) was “nanomolar concentrations” and the Ki ([4]; inhibition of [3H]quisqualate binding, mean ± SD of 2 experiments) was > 1000 µM. For the same compound, the “effect on [3H]quisqualate binding (in words)” value [4] was “did not affect”, the IC50 [5] was 0.161 ± 0.038 µM and the “inhibition of [3H]Compound A binding to rat cerebellar membranes” value [6] was “maximally inhibited”.
